Measurements reported in US20060276438A1 (priority 2004, published 2006).
Values after ≈ are worked out from the molar mass of the structure shown. Values joined by “and” are separate entries in the source; they are usually repeats but may differ in a detail not shown here. Identical values can stand only once. Like-named read-outs stand apart in the source and are kept apart here. Marks after values point to notes of the source that are not given here.

Key:
[1] = tested on: Influenza A (H1N1; New Caledonia/20/99); assay: microbe, parasite or virus in culture; format: cell-based, influenza type A virus; details: for EC50: Influenza A virus, H1N1, MDCK, MDCK cells, H1N1 New Caledonia/20/99; for antiviral activity rating in words: influenza virus A (H1N1)
[2] = tested on: Madin-Darby canine kidney cells (MDCK); assay: cells; details: Canis lupus familiaris
[3] = tested on: Influenza A (H3N2; Panama/2007/99); assay: microbe, parasite or virus in culture; format: cell-based, influenza type A virus; details: for EC50: MDCK cells, H3N2 Panama/2007/99; for SI (Safety Index = IC50/EC50): H3N2; for antiviral activity rating in words: influenza virus A (H3N2)
[4] = tested on: Influenza B (Hong Kong/330/02); assay: Antiviral assay in MDCK cells (CPE inhibition visual / Neutral Red), influenza B, initial and confirmatory test; format: cell-based, influenza type B virus; details: for antiviral activity rating in words: influenza virus B
Protocol: An antiviral test assay for the determination of the efficacy of DON was carried out according to the methods described in Furata et al., Antimicrobial Agents and Chemotherapy, 46(4):977-981 (2002). The vehicle used was Eagle's modification of minimum essential medium (EMEM). Two tests were carried out with different strains of influenza type A viruses and one test, followed by a confirmatory test, was carried out with an influenza type B virus strain. The cell type in all tests was Madin-Darby canine kidney cells (MDCK), and in all tests drug units and control units are expressed as micrograms/milliliter (μg/ml). […] The Safety Index (SI) of the drug could then be calculated according to the formula: SI═IC50/EC50. […] The Safety Index (SI) of the drug could then be calculated according to the formula: SI═IC50/ EC50, or SI═IC50/ EC90. All drug tests were carried out with stationary cells.

[5] = tested on: Vero cells
[6] = tested on: Madin-Darby canine kidney cells (MDCK); details: at concentrations of 1-100 μg/ml
[7] = based on EC50 by CPE inhibition (visual), H1N1
[8] = based on EC50 by Neutral Red, H1N1
[9] = read-out: IC50 (concentration toxic for 50% of MDCK host cells), in the influenza A H1N1 test, stationary cells
[10] = read-out: IC50 (concentration toxic for 50% of MDCK host cells), in the influenza A H3N2 test, stationary cells
[11] = read-out: IC50 (concentration toxic for 50% of MDCK host cells), in the influenza B initial test, stationary cells
[12] = Influenza A virus, H3N2, MDCK, CPE inhibition (visual), read-out: EC50
[13] = Influenza A virus, H3N2, MDCK, Neutral Red assay, read-out: EC50
[14] = based on EC50 by CPE inhibition (visual)
[15] = Influenza B virus, MDCK, CPE inhibition (visual), MDCK cells, influenza B Hong Kong/330/02, initial test, read-out: EC50
[16] = Influenza B virus, MDCK, Neutral Red assay, MDCK cells, influenza B Hong Kong/330/02, initial test, read-out: EC50
[17] = based on EC50 by CPE inhibition (visual), influenza B initial test
[18] = based on EC50 by Neutral Red, influenza B initial test
[19] = read-out: IC50 (concentration toxic for 50% of MDCK host cells), in the influenza B confirmatory test, stationary cells
[20] = Influenza B virus, MDCK, confirmatory test, visual method, MDCK cells, influenza B Hong Kong/330/02, read-out: EC50

N[C@H](C(=O)O)[C@@H]1CC(Cl)=NO1 [acivicin, (alpha-S,5S)-alpha-amino-3-chloro-2-isoxazoline-5-acetic acid]
EC50 ([1]; CPE inhibition (visual)): 2.5 µg/mL (≈ 14 µM) | EC50 ([1]; Neutral Red assay): 1.3 µg/mL (≈ 7.28 µM) | SI (Safety Index = IC50/EC50) [1, 7]: >4 | SI (Safety Index = IC50/EC50) [1, 8]: >7.7 | antiviral activity rating in words [1]: weakly active to active | IC50 [2, 9]: > 100 µg/mL | IC50 [2, 10]: ≥ 100 µg/mL | IC50 [2, 11]: ≥ 100 µg/mL | EC50 [3, 12]: 50 µg/mL (≈ 280 µM) | EC50 [3, 13]: 55 µg/mL (≈ 308 µM) | SI (Safety Index = IC50/EC50) [3, 14]: >2 | SI (Safety Index = IC50/EC50) ([3]; based on EC50 by Neutral Red): 1.8 | antiviral activity rating in words [3]: not active | EC50 [4, 15]: 0.32 µg/mL (≈ 1.79 µM) | EC50 [4, 16]: 0.32 µg/mL (≈ 1.79 µM) | SI (Safety Index = IC50/EC50) [4, 17]: >312 | SI (Safety Index = IC50/EC50) [4, 18]: >312 | antiviral activity rating in words [4]: markedly active

NC(=O)c1ncn([C@@H]2O[C@H](CO)[C@@H](O)[C@H]2O)n1 [Positive control drug, ribavarin]
SI (Safety Index = IC50/EC50) [1]: >18 | EC50 ([1]; CPE inhibition (visual)): 5.5 µg/mL (≈ 22.5 µM) | EC50 ([1]; Neutral Red assay): 5.5 µg/mL (≈ 22.5 µM) | IC50 [2, 9]: > 100 µg/mL | IC50 [2, 10]: > 100 µg/mL | IC50 [2, 19]: > 100 µg/mL | IC50 [2, 11]: > 100 µg/mL | EC50 [3, 13]: 4.3 µg/mL (≈ 17.6 µM) | EC50 ([3]; Neutral Red assay): 5.5 µg/mL (≈ 22.5 µM) | EC50 [4, 16]: 2 µg/mL (≈ 8.19 µM) | EC50 [4, 20]: 1.8 µg/mL (≈ 7.37 µM) | EC90 ([4]; Influenza B virus, confirmatory test, visual method, MDCK cells, influenza B Hong Kong/330/02, read-out: EC90): 3.5 µg/mL (≈ 14.3 µM) | EC50 ([4]; Neutral Red assay, MDCK cells, influenza B Hong Kong/330/02, initial test): 1.2 µg/mL (≈ 4.91 µM) | SI (Safety Index = IC50/EC50) [4, 18]: >50 and >83 | SI (Safety Index = IC50/EC50) ([4]; influenza B confirmatory test): >56 | SI = IC50/EC90 ([4]; influenza B confirmatory test): >29^b

[N-]=[N+]=CC(=O)CC[C@H](N)C(=O)O [DON, 6-diazo-5-oxo-L-norleucine]
toxicity by neutral red assay in Vero cells compared with MDCK cells [5]: much greater than in MDCK cells | EC50 ([1]; CPE inhibition (visual)): 0.32 µg/mL (≈ 1.87 µM) | EC50 ([1]; Neutral Red assay): 0.21 µg/mL (≈ 1.23 µM) | SI (Safety Index = IC50/EC50) [1, 7]: 312 | SI (Safety Index = IC50/EC50) [1, 8]: 476 | antiviral activity rating in words [1]: active to highly active | toxicity in the neutral red assay [6]: 25-50% | IC50 [2, 9]: > 100 µg/mL | IC50 [2, 10]: ≥ 100 µg/mL | IC50 [2, 19]: > 100 µg/mL | IC50 [2, 11]: ≥ 100 µg/mL | EC50 [3, 12]: 2.3 µg/mL (≈ 13.4 µM) | EC50 [3, 13]: 1.8 µg/mL (≈ 10.5 µM) | SI (Safety Index = IC50/EC50) [3, 14]: 43 | SI (Safety Index = IC50/EC50) ([3]; based on EC50 by Neutral Red): 56 | antiviral activity rating in words [3]: active to highly active | EC90 ([4]; Influenza B virus, MDCK): 2.5 µg/mL (≈ 14.6 µM) | EC50 [4, 15]: 0.032 µg/mL (≈ 0.187 µM) | EC50 [4, 16]: 0.14 µg/mL (≈ 0.818 µM) | EC50 [4, 20]: 0.18 µg/mL (≈ 1.05 µM) | SI (Safety Index = IC50/EC50) [4, 17]: 3,125 | SI (Safety Index = IC50/EC50) [4, 18]: 714 | SI (Safety Index = IC50/EC50) ([4]; influenza B confirmatory test): >555 | SI = IC50/EC90 ([4]; influenza B confirmatory test): 40^b | antiviral activity rating in words [4]: active to highly active
